Test results as given in US20220041606A1, “POSITIVE ALLOSTERIC MODULATORS OF THE MUSCARINIC ACETYLCHOLINE RECEPTOR M1” (Vanderbilt University, priority 2020, published 2022).

Columns and labels:
human mAChR M1 [1] = biological target: T1, human mAChR M1 (Homo sapiens, UniProt P11229); assay: mAChR M1 cell-based functional assay (calcium mobilization), agonist activity upon compound addition; conditions: CHO-K1 cells expressing hM1; for EC50: compound alone, before acetylcholine addition; for Emax: relative to the maximum for acetylcholine
T1 construct: host or cells: CHO-K1 cells (ATCC), stably transfected using Lipofectamine2000
T1 sequence (P11229 1-460): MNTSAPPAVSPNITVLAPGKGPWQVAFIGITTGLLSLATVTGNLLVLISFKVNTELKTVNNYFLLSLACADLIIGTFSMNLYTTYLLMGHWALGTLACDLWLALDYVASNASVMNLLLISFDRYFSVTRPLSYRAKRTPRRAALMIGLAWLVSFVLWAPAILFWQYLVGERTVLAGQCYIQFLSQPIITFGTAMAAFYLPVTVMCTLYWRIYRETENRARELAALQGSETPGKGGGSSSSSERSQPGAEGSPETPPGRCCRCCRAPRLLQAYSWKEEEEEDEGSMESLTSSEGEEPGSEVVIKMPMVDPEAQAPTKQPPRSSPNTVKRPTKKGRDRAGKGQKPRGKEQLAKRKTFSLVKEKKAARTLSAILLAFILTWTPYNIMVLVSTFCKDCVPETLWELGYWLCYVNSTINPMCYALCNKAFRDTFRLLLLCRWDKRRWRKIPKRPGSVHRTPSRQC
Outline: (§1)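 Fluorescence ratio calcium read-out (Fluo-4 AM, FDSS 6000) in human M1-expressing CHO-K1 cells. Agonist activity taken as concentration-dependent rise after compound addition; potentiation as enhancement of a subsequent EC20 acetylcholine challenge. Curves from 11-point threefold dilutions fitted by four-parameter logistic; Emax expressed versus acetylcholine maximum.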

human mAChR M1 [2] = biological target: T1, human mAChR M1; assay: mAChR M1 cell-based functional assay (calcium mobilization), PAM activity: increase in the EC20 acetylcholine response; conditions: CHO-K1 cells expressing hM1; potentiation of EC20 acetylcholine response
Outline: as §1

Row | SMILES | EC50 (human mAChR M1 [1]) [µM] | Emax (human mAChR M1 [1]) [%] | EC50 (human mAChR M1 [2]) [µM] | Emax (human mAChR M1 [2]) [%]
1 | Cn1ccc(-c2ccc(Cn3cc(C(=O)N[C@H]4CCC[C@@H]4O)c4occc4c3=O)c(F)c2)n1 [Compound D8, 5-(2-Fluoro-4-(1-methyl-1H-pyrazol-3-yl)benzyl)-N-((1S,2S)-2-hydroxycyclopentyl)-4-oxo-4,5-dihydrofuro[3,2-c]pyridine-7-carboxamide] | > 10 | < 5 | 5.13 | 32
2 | Cn1cc2c(-c3cc(F)c(Cn4cc(C(=O)N[C@H]5CCCCC[C@@H]5O)c5nccnc5c4=O)c(F)c3)cccc2n1 [Compound A67, 6-(2,6-difluoro-4-(2-methyl-2H-indazol-4-yl)benzyl)-N-((1S,2S)-2-hydroxycycloheptyl)-5-oxo-5,6-dihydropyrido[3,4-b]pyrazine-8-carboxamide] | 5 | 46 | 0.62 | 77
3 | CC[C@H](C)[C@@H](CO)NC(=O)c1cn(Cc2ccc(-c3cnn(C)c3)cc2F)c(=O)c2nccnc12 [Compound A83, 6-(2-fluoro-4-(1-methyl-1H-pyrazol-4-yl)benzyl)-N-((2S,3S)-1-hydroxy-3-methylpentan-2-yl)-5-oxo-5,6-dihydropyrido[3,4-b]pyrazine-8-carboxamide] | > 10 | < 5 | ≥ 10 | 26
4 | O=C(N[C@H]1CCOC[C@@H]1O)c1cn(Cc2ccc(-c3cscn3)cc2)c(=O)n2ccnc12 [Compound B17, N-((3R,4S)-3-hydroxytetrahydro-2H-pyran-4-yl)-5-oxo-6-(4-(thiazol-4-yl)benzyl)-5,6-dihydroimidazo[1,2-c]pyrimidine-8-carboxamide] | > 10 | 24 | 0.47 | 83
5 | Cn1cc2c(-c3cc(F)c(Cn4cc(C(=O)NC5(CO)CCOC5)c5nccnc5c4=O)c(F)c3)cccc2n1 (stereo not shown) [Compound A72, 6-(2,6-difluoro-4-(2-methyl-2H-indazol-4-yl)benzyl)-N-(3-(hydroxymethyl)tetrahydrofuran-3-yl)-5-oxo-5,6-dihydropyrido[3,4-b]pyrazine-8-carboxamide] | > 10 | < 5 | ≥ 10 | 32
6 | Cn1ccc(-c2ccc(Cn3cc(C(=O)NC4CC5(COC5)C4)c4ncccc4c3=O)c(F)c2)n1 [Compound A5, 6-(2-Fluoro-4-(1-methyl-1H-pyrazol-3-yl)benzyl)-5-oxo-N-(2-oxaspiro[3.3]heptan-6-yl)-5,6-dihydro-1,6-naphthyridine-8-carboxamide] | > 10 | < 5 | 2.74 | 44
7 | Cn1cc2c(-c3cc(F)c(Cn4cc(C(=O)NC5CC6(COC6)C5)c5nccnc5c4=O)c(F)c3)cccc2n1 [Compound A71, 6-(2,6-difluoro-4-(2-methyl-2H-indazol-4-yl)benzyl)-5-oxo-N-(2-oxaspiro[3.3]heptan-6-yl)-5,6-dihydropyrido[3,4-b]pyrazine-8-carboxamide] | > 10 | < 5 | 3.1 | 57
8 | O=C(N[C@H]1CCCCC[C@@H]1O)c1cn(Cc2ccc(-n3cccn3)cc2)c(=O)c2nccnc12 [Compound A62, 6-(4-(1H-pyrazol-1-yl)benzyl)-N-((1S,2S)-2-hydroxycycloheptyl)-5-oxo-5,6-dihydropyrido[3,4-b]pyrazine-8-carboxamide] | > 10 | < 5 | ≥ 10 | 53
9 | Cn1cc(-c2ccc(Cn3cc(C(=O)NCC(O)C(F)(F)F)c4nccnc4c3=O)c(F)c2)cn1 (stereo not shown) [Compound A81, 6-(2-fluoro-4-(1-methyl-1H-pyrazol-4-yl)benzyl)-5-oxo-N-(3,3,3-trifluoro-2-hydroxypropyl)-5,6-dihydropyrido[3,4-b]pyrazine-8-carboxamide] | > 10 | < 5 | ≥ 10 | 33
10 | Cn1cc(-c2ccc(Cn3cc(C(=O)N[C@H]4CCCC[C@@H]4O)c4nccn4c3=O)cn2)cn1 [Compound B11, N-((1S,2S)-2-hydroxycyclohexyl)-6-((6-(1-methyl-1H-pyrazol-4-yl)pyridin-3-yl)methyl)-5-oxo-5,6-dihydroimidazo[1,2-c]pyrimidine-8-carboxamide] | 5 | 45 | 0.21 | 63
11 | Cn1nccc1-c1cc(F)c(Cn2cc(C(=O)N[C@H]3CCCC[C@@H]3O)c3ncccc3c2=O)c(F)c1 [Compound A48, 6-(2,6-difluoro-4-(1-methyl-1H-pyrazol-5-yl)benzyl)-N-((1S,2S)-2-hydroxycyclohexyl)-5-oxo-5,6-dihydro-1,6-naphthyridine-8-carboxamide] | > 10 | < 5 | 0.66 | 38
12 | O=C(N[C@H]1CCC[C@@H]1O)c1cn(Cc2ccc(-n3cccn3)cc2)c(=O)c2ccoc12 [Compound D4, 5-(4-(1H-pyrazol-1-yl)benzyl)-N-((1S,2S)-2-hydroxycyclopentyl)-4-oxo-4,5-dihydrofuro[3,2-c]pyridine-7-carboxamide] | > 10 | < 5 | > 10 | 34
13 | Cc1cc(-c2ccc(Cn3cc(C(=O)N[C@H]4CCCC[C@@H]4O)c4ncccc4c3=O)c(F)c2)ccn1 [Compound A27, 6-(2-Fluoro-4-(2-methylpyridin-4-yl)benzyl)-N-((1S,2S)-2-hydroxycyclohexyl)-5-oxo-5,6-dihydro-1,6-naphthyridine-8-carboxamide] | > 10 | 6 | 0.86 | 74
14 | Cc1ncc(-c2cc(F)c(Cn3cc(C(=O)N[C@H]4CCOC[C@@H]4O)c4ncccc4c3=O)c(F)c2)s1 [Compound A51, 6-(2,6-difluoro-4-(2-methylthiazol-5-yl)benzyl)-N-((3R,4S)-3-hydroxytetrahydro-2H-pyran-4-yl)-5-oxo-5,6-dihydro-1,6-naphthyridine-8-carboxamide] | > 10 | < 5 | 1.68 | 75
15 | Cn1cc(-c2ccc(Cn3cc(C(=O)N[C@H]4CCCC[C@@H]4O)c4ncccc4c3=O)c(F)c2)cn1 [Compound A7, 6-(2-fluoro-4-(1-methyl-1H-pyrazol-4-yl)benzyl)-N-((1S,2S)-2-hydroxycyclohexyl)-5-oxo-5,6-dihydro-1,6-naphthyridine-8-carboxamide] | – | 12 | 0.29 | 89
16 | Cn1nccc1-c1ccc(Cn2cc(C(=O)N[C@H]3CCOC[C@@H]3O)c3nccn3c2=O)c(F)c1 [Compound B31, 6-(2-fluoro-4-(1-methyl-1H-pyrazol-5-yl)benzyl)-N-((3R,4S)-3-hydroxytetrahydro-2H-pyran-4-yl)-5-oxo-5,6-dihydroimidazo[1,2-c]pyrimidine-8-carboxamide] | > 10 | 6 | 1.13 | 82
17 | Cn1cc(-c2ccc(Cn3cc(C(=O)NC4CC5(COC5)C4)c4ncccc4c3=O)c(F)c2)cn1 [Compound A11, 6-(2-fluoro-4-(1-methyl-1H-pyrazol-4-yl)benzyl)-5-oxo-N-(2-oxaspiro[3.3]heptan-6-yl)-5,6-dihydro-1,6-naphthyridine-8-carboxamide] | > 10 | < 5 | 6.75 | 58
